We go through 28 compounds from patent US9382222B2, “Benzyl sulfonamide derivatives as RORc modulators” (Genentech, Inc., priority 2012, dated 2016).

This assay has as its target T1, RORc ligand binding domain (Homo sapiens, UniProt P51449).
T1 construct: host or cells: E. coli
T1 sequence (P51449 269-508 limits assumed): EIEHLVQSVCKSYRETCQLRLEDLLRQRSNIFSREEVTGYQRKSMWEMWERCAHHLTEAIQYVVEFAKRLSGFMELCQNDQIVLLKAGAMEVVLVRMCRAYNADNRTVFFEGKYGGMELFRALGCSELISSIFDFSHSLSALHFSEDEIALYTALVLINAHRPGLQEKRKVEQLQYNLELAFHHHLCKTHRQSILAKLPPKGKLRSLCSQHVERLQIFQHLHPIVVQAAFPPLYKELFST
The assay is described as follows: In Vitro RORc Ligand Binding Assay. The note with it: displacement of 25-[3H]hydroxycholesterol (6 nM), 0.6 ug/mL RORc receptor, 3 h at 25° C. Here is the method: In Vitro RORc Ligand Binding Assay This assay was used to determine a compound's potency in inhibiting activity of RORc by determining, Kiapp, IC50, or percent inhibition values. […] On day of the assay, 100 uL of 0.05% CHAPS (in deionized H2O) was added to all wells of the GFB Unifilter plate and allowed soak for 1 h. A wash buffer of 50 mM HEPES (pH 7.4), 150 mM NaCl, and 5 mM MgCl2 was prepared to wash the filter plate. To prepare an assay buffer, BSA was added to the wash buffer to reach 0.01% and DTT was added to reach 1 mM. […] The 20× compound stocks were diluted in DMSO with Assay Buffer 4-fold to reach 5× the final test concentration in 25% DMSO (10 uL compound+30 uL Assay Buffer). Solutions were mixed by aspiration several times with a pipette set on 50 uL volume. For the assay, 10 uL of 5× compound stock solutions in 25% DMSO were added to the assay plate in duplicate. For two point screening, 10 mM stock compound solutions were diluted in DMSO to obtain 200 uM (20× the high test concentration) and then diluted 10-fold further to reach 20 uM (20× the low test concentration). The 20× stocks were diluted 4-fold with Assay Buffer (10 uL compound+30 uL Assay Buffer) to reach 5× the test concentrations (50 uM and 5 uM) and 10 uL were added to two assay plates for the duplicate wells. […] Add 20 uL to all wells to reach 6 nM final concentration in the assay. […] Stock receptor solution was diluted in assay buffer to obtain 1.5 ug/mL in Assay Buffer. 20 uL was added to all wells. For No Receptor samples, 20 uL Assay Buffer was substituted for receptor solution. […] Following addition to the wells, the plates were incubated 3 h at 25° C. Using a Packard Filtermate Harvester, the filter plate were washed 4 times following transfer of the incubated samples. Plates were dry-filtered completely (2 h at 50° C. or overnight at room temperature). 50 uL Microscint 0 was added to all wells and read on Topcount protocol Inverted. […] For NSB wells, 1 uM 25-hydroxycholesterol was also present.
On to `CC(C)CN(c1cccc(Cl)c1)S(=O)(=O)c1ccc(O[C@@H]2CCCN(S(C)(=O)=O)C2)cc1` [Compound 42, N-(3-Chloro-phenyl)-N-isobutyl-4-((R)-1-methanesulfonyl-piperidin-3-yloxy)-benzenesulfonamide], for which the IC50 (in general, the concentration that inhibits the measured activity by half) was 0.164 µM.
The value for `CC(C)CN(c1cccc(Cl)c1)S(=O)(=O)c1ccc(N[C@@H]2CCCN(S(C)(=O)=O)C2)cc1` [Compound 44, N-(3-Chloro-phenyl)-N-isobutyl-4-((R)-1-methanesulfonyl-piperidin-3-ylamino)-benzenesulfonamide] was 0.117 µM; that for `CN(C)S(=O)(=O)N1CCN(c2ccc(S(=O)(=O)N(Cc3ccccc3C(F)(F)F)C3CCC3)cc2)CC1` [Compound 77, 4-{4-[Cyclobutyl-(2-trifluoromethyl-benzyl)-sulfamoyl]-phenyl}-piperazine-1-sulfonic acid dimethylamide] was 0.025 µM; that for `CC(=O)N1CCN(c2ccc(S(=O)(=O)N(Cc3ccc(Cl)cc3)CC(C)C)cc2)CC1` [Compound 67, 4-(4-Acetyl-piperazin-1-yl)-N-(4-chloro-benzyl)-N-isobutyl-benzenesulfonamide] was 0.087 µM.
To `CC(=O)N1CCN(c2ccc(S(=O)(=O)N(c3cccc(Cl)c3)C(C)C)cc2)CC1` [Compound 28, 4-(4-Acetyl-piperazin-1-yl)-N-(3-chloro-phenyl)-N-isopropyl-benzenesulfonamide] belongs 1.6 µM; to `CC(C)CN(Cc1ccccc1C(F)(F)F)S(=O)(=O)c1ccc(N2CCC(C(N)=O)CC2)cc1` [Compound 83, 1-{4-[Isobutyl-(2-trifluoromethyl-benzyl)-sulfamoyl]-phenyl}-piperidine-4-carboxylic acid amide], 0.024 µM.
To `CC(C)CN(Cc1ccccc1C(F)(F)F)S(=O)(=O)c1ccc(NC2CCN(S(C)(=O)=O)CC2)cc1` [Compound 84, N-Isobutyl-4-(1-methanesulfonyl-piperidin-4-ylamino)-N-(2-trifluoromethyl-benzyl)-benzenesulfonamide] belongs 0.006 µM; to `CN(C)S(=O)(=O)N1CCN(c2ccc(S(=O)(=O)N(Cc3ccccc3C(F)(F)F)CC(F)F)cc2)CC1` [Compound 85, 4-{4-[(2,2-Difluoro-ethyl)-(2-trifluoromethyl-benzyl)-sulfamoyl]-phenyl}-piperazine-1-sulfonic acid dimethylamide], 0.116 µM.
With `CC(=O)N1CCN(c2ccc(S(=O)(=O)N(Cc3ccccc3C(F)(F)F)CC(C)(C)C)cc2)CC1` [Compound 88, 4-(4-Acetyl-piperazin-1-yl)-N-(2,2-dimethyl-propyl)-N-(2-trifluoromethyl-benzyl)-benzenesulfonamide], the concentration for half-maximal inhibition (IC50) was found to be 0.039 µM.
The value for `CC(C)CN(Cc1ccccc1C(F)(F)F)S(=O)(=O)c1ccc(N2CCN(S(=O)(=O)N(C)C)CC2)cc1` [Compound 73, 4-{4-[Isobutyl-(2-trifluoromethyl-benzyl)-sulfamoyl]-phenyl}-piperazine-1-sulfonic acid dimethylamide] was 0.023 µM; that for `CC(=O)N1CCN(c2ccc(S(=O)(=O)N(CC(F)F)c3cccc(Cl)c3)cc2)CC1` [Compound 38, 4-(4-Acetyl-piperazin-1-yl)-N-(3-chloro-phenyl)-N-(2,2-difluoro-ethyl)-benzenesulfonamide] was 1.4 µM.
To `CN(C)S(=O)(=O)N1CCN(c2ccc(S(=O)(=O)N(Cc3ccccc3C(F)(F)F)C(C)(C)C)cc2)CC1` [Compound 82, 4-{4-[tert-Butyl-(2-trifluoromethyl-benzyl)-sulfamoyl]-phenyl}-piperazine-1-sulfonic acid dimethylamide] belongs 0.051 µM; to `CC(C)CN([C@@H](C)c1ccccc1)S(=O)(=O)c1ccc(N2CCN(S(C)(=O)=O)CC2)cc1` [Compound 63, N-Isobutyl-4-(4-methanesulfonyl-piperazin-1-yl)-N-((S)-1-phenyl-ethyl)-benzenesulfonamide], 0.039 µM; to `CC(C)CN(c1ccccc1C(F)(F)F)S(=O)(=O)c1ccc(NC(=O)C2CCN(S(C)(=O)=O)CC2)cc1` [Compound 11, 1-Methanesulfonyl-piperidine-4-carboxylic acid {4-[isobutyl-(2-trifluoromethyl-phenyl)-sulfamoyl]-phenyl}-amide], 0.013 µM.
Compound `CC(C)CN(c1cccc(Cl)c1)S(=O)(=O)c1cccc(NC2CCN(S(C)(=O)=O)CC2)c1` [Compound 40, N-(3-Chloro-phenyl)-N-isobutyl-3-(1-methanesulfonyl-piperidin-4-ylamino)-benzenesulfonamide] came in with an IC50 of 0.48 µM.
`CC(=O)N1CCN(c2ccc(S(=O)(=O)N(c3cccc(Cl)c3)C3CCC3)cc2)CC1` [Compound 30, 4-(4-Acetyl-piperazin-1-yl)-N-(3-chloro-phenyl)-N-cyclobutyl-benzenesulfonamide] came in with a concentration for half-maximal inhibition (IC50) of 0.149 µM.
To `CC(C)CN(c1cccc(Cl)c1)S(=O)(=O)c1ccc(N2CCC(NS(C)(=O)=O)CC2)cc1` [Compound 23, N-(3-Chloro-phenyl)-N-isobutyl-4-(4-methanesulfonylamino-piperidin-1-yl)-benzenesulfonamide] belongs 0.169 µM; to `CC(C)CN(c1ccc(F)cc1F)S(=O)(=O)c1ccc(OC2CCN(S(C)(=O)=O)CC2)cc1` [Compound 50, N-(2,4-Difluoro-phenyl)-N-isobutyl-4-(1-methanesulfonyl-piperidin-4-yloxy)-benzenesulfonamide], 0.009 µM; to `CC(C)CN(c1ccccc1Cl)S(=O)(=O)c1ccc(N2CCC(NS(C)(=O)=O)CC2)cc1` [Compound 24, N-(2-Chloro-phenyl)-N-isobutyl-4-(4-methanesulfonylamino-piperidin-1-yl)-benzenesulfonamide], 0.128 µM.
To `CC(=O)N1CCN(c2ccc(S(=O)(=O)N(Cc3ccccc3C(F)(F)F)C(C)(C)C)cc2)CC1` [Compound 81, 4-(4-Acetyl-piperazin-1-yl)-N-tert-butyl-N-(2-trifluoromethyl-benzyl)-benzenesulfonamide] belongs 0.11 µM; to `CC(=O)N1CCN(c2ccc(S(=O)(=O)N(Cc3ccccc3C(F)(F)F)C3CCC3)cc2)CC1` [Compound 76, 4-(4-Acetyl-piperazin-1-yl)-N-cyclobutyl-N-(2-trifluoromethyl-benzyl)-benzenesulfonamide], 0.031 µM; to `CC(C)CN(Cc1ccc(OC(F)(F)F)cc1)S(=O)(=O)c1ccc(NC2CCN(S(C)(=O)=O)CC2)cc1` [Compound 90, N-Isobutyl-4-(1-methanesulfonyl-piperidin-4-ylamino)-N-(4-trifluoromethoxy-benzyl)-benzenesulfonamide], 0.011 µM.
For `CC(C)CN([C@H](C)c1ccccc1)S(=O)(=O)c1ccc(N2CCN(S(C)(=O)=O)CC2)cc1` [Compound 62, N-Isobutyl-4-(4-methanesulfonyl-piperazin-1-yl)-N-((R)-1-phenyl-ethyl)-benzenesulfonamide], the IC50 was found to be 0.483 µM.
In turn, `CC(C)CN([C@@H](CO)c1ccccc1)S(=O)(=O)c1ccc(N2CCN(S(C)(=O)=O)CC2)cc1` [Compound 92, N-((R)-2-Hydroxy-1-phenyl-ethyl)-N-isobutyl-4-(4-methanesulfonyl-piperazin-1-yl)-benzenesulfonamide] came in with an IC50 of 3.1 µM.
The value for `CC(C)CN(c1cccc(Cl)c1)S(=O)(=O)c1ccc(N2CCN(S(=O)(=O)N(C)C)CC2)cc1` [Compound 19, 4-{4-[(3-Chloro-phenyl)-isobutyl-sulfamoyl]-phenyl}-piperazine-1-sulfonic acid dimethylamide] was 0.062 µM.
For the compound `CC(C)CN(c1ccc(F)cc1)S(=O)(=O)c1ccc(C(=O)N2CCN(S(C)(=O)=O)CC2)cc1` [Compound 53, N-(4-Fluoro-phenyl)-N-isobutyl-4-(4-methanesulfonyl-piperazine-1-carbonyl)-benzenesulfonamide], the half-maximal inhibitory concentration (IC50) came out at 0.299 µM.
The value for `C=C(c1ccccc1)N(CC(C)C)S(=O)(=O)c1ccc(N2CCN(S(C)(=O)=O)CC2)cc1` [Compound 78, N-Isobutyl-4-(4-methanesulfonyl-piperazin-1-yl)-N-(1-phenyl-vinyl)-benzenesulfonamide] was 0.023 µM; that for `CC(=O)N1CCN(c2ccc(S(=O)(=O)N(Cc3ccccc3C(F)(F)F)CC(F)(F)F)cc2)CC1` [Compound 80, 4-(4-Acetyl-piperazin-1-yl)-N-(2,2,2-trifluoro-ethyl)-N-(2-trifluoromethyl-benzyl)-benzenesulfonamide] was 0.087 µM.
